According to US11873291B2, “Quinoline cGAS antagonist compounds” (ImmuneSensor Therapeutics, Inc., priority 2020, dated 2024):

Each molecule was assayed against T1, recombinant human cGAS (aa147-522) (Homo sapiens, UniProt Q8N884) (assay: In vitro inhibition assay of cGAS activity (ATP consumption, KinaseGlo Max)). Details: Table 2, read-out: cGAS Inhibition Results IC50.
T1 construct: recombinant human cGAS (aa147-522); His6-SUMO (cleaved yes); made in house; host or cells: E. coli BL21/pLys
Format: biochemical
Procedure, shortened: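 IC50 came from plotting % ATP consumption against log compound concentration, with leftover ATP detected by KinaseGlo Max chemiluminescence. Reactions ran 20 min at 37 °C with 1.5 μg/mL human cGAS (aa147-522), 6.6 μM ATP, 0.1 mM GTP and 0.01 mg/mL DNA at pH 7.5.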

T1 sequence (Q8N884 147-522): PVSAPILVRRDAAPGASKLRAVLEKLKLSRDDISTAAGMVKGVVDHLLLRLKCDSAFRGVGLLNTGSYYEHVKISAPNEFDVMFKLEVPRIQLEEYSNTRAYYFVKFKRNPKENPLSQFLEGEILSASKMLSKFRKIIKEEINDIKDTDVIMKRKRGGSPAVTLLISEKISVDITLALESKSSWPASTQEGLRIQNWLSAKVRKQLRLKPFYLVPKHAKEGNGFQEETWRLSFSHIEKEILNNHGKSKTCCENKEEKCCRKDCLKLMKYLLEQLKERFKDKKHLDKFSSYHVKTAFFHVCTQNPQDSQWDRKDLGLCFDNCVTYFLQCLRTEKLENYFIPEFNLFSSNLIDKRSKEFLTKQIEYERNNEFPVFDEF

IC50 | SMILES
2000 to 30000 nM | CC(CNc1cc(-n2ccnc2)c2ccc(Cl)c(Cl)c2n1)S(N)(=O)=O (centres unmarked) [I-210]
2000 to 30000 nM | CC(CN1CCOCC1)Nc1cc(-c2cn[nH]c2)c2ccc(Cl)c(Cl)c2n1 (centres unmarked) [I-211]
2000 to 30000 nM | CCN(CCN1CCOCC1)c1cc(-c2cn[nH]c2)c2ccc(Cl)c(Cl)c2n1 [I-212]
2000 to 30000 nM | Clc1ccc2c(-c3cn[nH]c3)cc(NCCN3CCOCC3)nc2c1Cl [I-213]
2000 to 30000 nM | CN(CCN1CCOCC1)c1cc(-c2cn[nH]c2)c2ccc(Cl)c(Cl)c2n1 [I-214]
2000 to 30000 nM | Clc1ccc2c(-n3ccnc3)cc(NCCN3CCOCC3)nc2c1Cl [I-215]
2000 to 30000 nM | Clc1ccc2c(-c3cn[nH]c3)cc(N(CCN3CCOCC3)Cc3ccccc3)nc2c1Cl [I-216]
> 30000 nM | Clc1ccc2c(-c3cn[nH]c3)cc(NCC3COCCN3)nc2c1Cl (centres unmarked) [I-217]
< 2000 nM | OCCN(CCN1CCOCC1)c1cc(-c2cn[nH]c2)c2ccc(Cl)c(Cl)c2n1 [I-218]
< 2000 nM | NS(=O)(=O)N1CCOC(CNc2cc(-n3ccnc3)c3ccc(Cl)c(Cl)c3n2)C1 (centres unmarked) [I-219, 2-(((7,8-dichloro-4-(1H-imidazol-1-yl)quinolin-2-yl)amino)methyl)morpholine-4-sulfonamide]
2000 to 30000 nM | Clc1ccc2c(-c3cn[nH]c3)cc(NCC3CNCCO3)nc2c1Cl (centres unmarked) [I-220]
< 2000 nM | CC(=O)N1CCOC(CNc2cc(-c3cn[nH]c3)c3ccc(Cl)c(Cl)c3n2)C1 (centres unmarked) [I-221, 1-(2-(((7,8-dichloro-4-(1H-pyrazol-4-yl)quinolin-2-yl)amino)methyl)morpholino)ethan-1-one]
< 2000 nM | O=C(CO)N1CCOC(CNc2cc(-c3cn[nH]c3)c3ccc(Cl)c(Cl)c3n2)C1 (centres unmarked) [I-222]
< 2000 nM | CN(CCNS(N)(=O)=O)c1cc(-n2ccnc2)c2ccc(Cl)c(Cl)c2n1 [I-223, N-(2-((7,8-dichloro-4-(1H-imidazol-1-yl)quinolin-2-yl)(methyl)amino)ethyl)aminosulfonamide]
< 2000 nM | CN(CCN(C)S(N)(=O)=O)c1cc(-n2ccnc2)c2ccc(Cl)c(Cl)c2n1 [I-224]
< 2000 nM | CN(CCNS(C)(=O)=O)c1cc(-n2ccnc2)c2ccc(Cl)c(Cl)c2n1 [I-225]
2000 to 30000 nM | CN(CCNS(=O)(=O)C1CC1)c1cc(-n2ccnc2)c2ccc(Cl)cc2n1 [I-226, N-(2-((7-chloro-4-(1H-imidazol-1-yl)quinolin-2-yl)(methyl)amino)ethyl)cyclopropanesulfonamide]
> 30000 nM | CN(CCNS(=O)(=O)c1ccccc1)c1cc(-n2ccnc2)c2ccc(Cl)cc2n1 [I-227]
> 30000 nM | CN(CCNS(=O)(=O)c1ccccc1C(F)(F)F)c1cc(-n2ccnc2)c2ccc(Cl)cc2n1 [I-228]
> 30000 nM | COCn1nccc1S(=O)(=O)NCCN(C)c1cc(-n2ccnc2)c2ccc(Cl)cc2n1 [I-229]
2000 to 30000 nM | CN(CCNS(=O)(=O)c1ncc[nH]1)c1cc(-n2ccnc2)c2ccc(Cl)cc2n1 [I-230]
2000 to 30000 nM | CN(CCNS(=O)(=O)c1cccnc1)c1cc(-n2ccnc2)c2ccc(Cl)cc2n1 [I-231]
2000 to 30000 nM | CN(CCNS(=O)(=O)c1cncn1C)c1cc(-n2ccnc2)c2ccc(Cl)cc2n1 [I-232]
< 2000 nM | CN(CCNS(C)(=O)=O)c1cc(-n2ccnc2)c2ccc(Cl)cc2n1 [I-234]

IC50 | SMILES
< 2000 nM | CN(CCNS(C)(=O)=O)c1cc(-c2cn[nH]c2)c2ccc(Cl)c(Cl)c2n1 [I-235]
2000 to 30000 nM | CC(=O)NCCN(C)c1cc(-n2ccnc2)c2ccc(Cl)cc2n1 [I-236]
2000 to 30000 nM | CN(CCNC(=O)c1ccccc1)c1cc(-n2ccnc2)c2ccc(Cl)cc2n1 [I-237]
< 2000 nM | CN(CCO)c1cc(-n2ccnc2)c2ccc(Cl)c(Cl)c2n1 [I-238]
< 2000 nM | OCCNc1cc(-n2ccnc2)c2ccc(Cl)c(Cl)c2n1 [I-239]
< 2000 nM | CN(CCO)c1cc(-c2cn[nH]c2)c2ccc(Cl)c(Cl)c2n1 [I-240]
< 2000 nM | C[C@@H](CO)N(C)c1cc(-n2ccnc2)c2ccc(Cl)c(Cl)c2n1 [I-241]
< 2000 nM | C[C@H](CO)N(C)c1cc(-n2ccnc2)c2ccc(Cl)c(Cl)c2n1 [I-242]
< 2000 nM | CC(O)CN(C)c1cc(-n2ccnc2)c2ccc(Cl)c(Cl)c2n1 (centres unmarked) [I-243]
< 2000 nM | COCCN(C)c1cc(-n2ccnc2)c2ccc(Cl)c(Cl)c2n1 [I-244]
< 2000 nM | OC1(CNc2cc(-n3ccnc3)c3ccc(Cl)c(Cl)c3n2)CC1 [I-245]
2000 to 30000 nM | OC[C@@H](Nc1cc(-n2ccnc2)c2ccc(Cl)c(Cl)c2n1)c1ccccc1 [I-246]
2000 to 30000 nM | OC[C@H](Nc1cc(-n2ccnc2)c2ccc(Cl)c(Cl)c2n1)c1ccccc1 [I-247]
< 2000 nM | CN(CCCO)c1cc(-c2cn[nH]c2)c2ccc(Cl)c(Cl)c2n1 [I-248]
< 2000 nM | OCC(CO)Nc1cc(-n2ccnc2)c2ccc(Cl)c(Cl)c2n1 [I-249]
< 2000 nM | O=P(O)(O)CCNc1cc(-n2ccnc2)c2ccc(Cl)c(Cl)c2n1 [I-250]
> 30000 nM | O=P(O)(O)Cc1cc(-n2ccnc2)c2ccc(Cl)c(Cl)c2n1 [I-251, ((7,8-dichloro-4-(1H-imidazol-1-yl)quinolin-2-yl)methyl)phosphonic acid]
< 2000 nM | O=P(O)(O)CNc1cc(-c2cn[nH]c2)c2ccc(Cl)c(Cl)c2n1 [I-254, (7,8-dichloro-4-(1H-pyrazol-4-yl)quinolin-2-ylamino)methylphosphonic acid]
< 2000 nM | CN(CCO[PH](=O)O)c1cc(-n2ccnc2)c2ccc(Cl)c(Cl)c2n1 [I-255]
< 2000 nM | CN(CCCO[PH](=O)O)c1cc(-c2cn[nH]c2)c2ccc(Cl)c(Cl)c2n1 [I-256]
< 2000 nM | CN(CCCO[PH](=O)OCCC#N)c1cc(-c2cn[nH]c2)c2ccc(Cl)c(Cl)c2n1 (centres unmarked) [I-257]
< 2000 nM | O=[PH](O)OCCCCNc1cc(-c2cn[nH]c2)c2ccc(Cl)c(Cl)c2n1 [I-258]
< 2000 nM | NS(=O)(=O)CCNc1cc(-c2cn[nH]c2)c2cc(Cl)c(Cl)cc2n1 [I-260]
> 30000 nM | NS(=O)(=O)CCNc1cc(-c2cn[nH]c2)c2c(Cl)c(Cl)ccc2n1 [I-261]

IC50 | SMILES
< 2000 nM | NS(=O)(=O)CCNc1cc(-c2cn[nH]c2)c2ccc(Cl)c(F)c2n1 [I-262]
> 30000 nM | NS(=O)(=O)CCNc1cc(-c2cn[nH]c2)c2c(Cl)cc(Cl)cc2n1 [I-263]
< 2000 nM | NS(=O)(=O)CCNc1cc(-c2cn[nH]c2)c2cc(Cl)cc(Cl)c2n1 [I-264]
> 30000 nM | NS(=O)(=O)CCNc1cc(-c2cn[nH]c2)c2cc(C(F)(F)F)ccc2n1 [I-265]
> 30000 nM | Cc1ccc2c(-c3cn[nH]c3)cc(NCCS(N)(=O)=O)nc2c1 [I-266]
> 30000 nM | Cc1cccc2nc(NCCS(N)(=O)=O)cc(-c3cn[nH]c3)c12 [I-267]
> 30000 nM | CC(C)(C)c1ccc2c(-c3cn[nH]c3)cc(NCCS(N)(=O)=O)nc2c1 [I-268]
> 30000 nM | CC(C)c1ccc2c(-c3cn[nH]c3)cc(NCCS(N)(=O)=O)nc2c1 [I-269]
< 2000 nM | O=C(O)CCc1cc(-c2cn[nH]c2)c2ccc(Cl)c(Cl)c2n1 [I-270, 3-(7,8-dichloro-4-(1H-pyrazol-4-yl)quinolin-2-yl)propanoic acid]
2000 to 30000 nM | OCCCc1cc(-c2cn[nH]c2)c2ccc(Cl)c(Cl)c2n1 [I-271, 3-(7,8-dichloro-4-(1H-pyrazol-4-yl)quinolin-2-yl)propan-1-ol]
2000 to 30000 nM | O=C1NC(=O)C(CCCc2cc(-c3cn[nH]c3)c3ccc(Cl)c(Cl)c3n2)S1 (centres unmarked) [I-272, 5-(3-(7,8-dichloro-4-(1H-pyrazol-4-yl)quinolin-2-yl)propyl)thiazolidine-2,4-dione]
2000 to 30000 nM | O=C(O)C1CCC=C(c2cc(-c3cn[nH]c3)c3ccc(Cl)c(Cl)c3n2)C1 (centres unmarked) [I-273, 3-(7,8-dichloro-4-(1H-pyrazol-4-yl)quinolin-2-yl)cyclohex-3-ene-1-carboxylic acid]
2000 to 30000 nM | O=C1NC(=O)/C(=C\CCc2cc(-c3cn[nH]c3)c3ccc(Cl)c(Cl)c3n2)S1 [I-274, (E)-5-(3-(7,8-Dichloro-4-(1H-pyrazol-4-yl)quinolin-2-yl)propylidene)thiazolidine-2,4-dione]
> 30000 nM | Fc1ccc(Cc2cc(-n3ccnc3)c3ccc(Br)cc3n2)cc1 [I-275]
< 2000 nM | O=C1NC(=O)/C(=C\c2cc(-n3ccnc3)c3ccc(Cl)c(Cl)c3n2)S1 [I-276, (E)-5-((7,8-dichloro-4-(1H-imidazol-1-yl)quinolin-2-yl)methylene)thiazolidine-2,4-dione]
2000 to 30000 nM | Clc1ccc2c(-n3ccnc3)cc(OCc3ccccc3)nc2c1 [I-277, 2-(benzyloxy)-7-chloro-4-(1H-imidazol-1-yl)quinoline]
2000 to 30000 nM | Clc1ccc2c(-n3ccnc3)cc(Oc3ccccc3)nc2c1 [I-278]
> 30000 nM | Clc1ccc2c(-n3ccnc3)cc(OCCN3CCOCC3)nc2c1 [I-279]
> 30000 nM | CCOc1cc(-n2ccnc2)c2ccc(Cl)cc2n1 [I-280]
2000 to 30000 nM | O=C(O)c1cccc(COc2cc(-n3ccnc3)c3ccc(Cl)cc3n2)c1 [I-281]
2000 to 30000 nM | O=C(O)c1cccc(Oc2cc(-n3ccnc3)c3ccc(Cl)cc3n2)c1 [I-282]
> 30000 nM | O=C(O)c1ccccc1Oc1cc(-n2ccnc2)c2ccc(Cl)cc2n1 [I-283]
> 30000 nM | Clc1ccc2c(-n3ccnc3)cc(OCCCN3CCOCC3)nc2c1 [I-284]
< 2000 nM | C[C@H](Nc1cc(-c2cn[nH]c2)nc2c(Cl)c(Cl)ccc12)C(=O)O [I-285]

Same assay, conditions: cGAS Inhibition Results IC50, Table 2

SMILES | IC50
CCOP(=O)(O)Cc1cc(-n2ccnc2)c2ccc(Cl)c(Cl)c2n1 [I-252, Ethyl hydrogen (7,8-dichloro-4-(1H-imidazol-1-yl)quinolin-2-yl)methylphosphonate] | 2000 to 30000 nM
CCOP(=O)(O)CNc1cc(-c2cn[nH]c2)c2ccc(Cl)c(Cl)c2n1 [I-253, Ethyl hydrogen (7,8-dichloro-4-(1H-pyrazol-4-yl)quinolin-2-ylamino)methylphosphonate] | < 2000 nM
